The subject of this experiment is C57B1/6 male mice. In words: Contextual fear conditioning (weak versus strong training), 4-day contextual memory scored as freezing, after intra-hippocampal infusion. The format is in vivo, mouse. Also noted: effect on memory induced by strong training: dose or concentration left out as unconfirmed. The note with it: tested 4 days after training; for freezing responses: ANI 62.5 μg/2 μl per hippocampus immediately after training. On the procedure: Ten to twelve week old C57B1/6 male mice (Taconic Laboratory, N.Y.) were used. Mice were housed in groups of four in standard mouse cages and kept in a 12:12 light-dark cycle and constant temperature (22° C.) in a humidity and ventilation-controlled animal house. With the exception of surgery, training and testing times, the mice had ad lib access to food and water. Animals were acclimatized to animal house environment for a week before surgery. On a day of surgery, mice were anesthetized with 20 mg/kg Avertin and implanted with a 26-gauge guide double cannula aimed at the dorsal hippocampus using a stereotaxic apparatus (Korf Instruments, Calif.; coordinates: P=1 mm; 5 mm to a depth 1-1.2 mm; Franklin and Paxinos, The Mouse Brain In Stereotaxis Coordinates, Academic Press, San Diego, Calif. (1997)). After the end of surgery, animals were individually maintained in a cage with ad lib access to food and water. Seven days after recovery from surgery, animals were trained for contextual fear conditioning.
The basic fear conditioning procedures and equipment remained as described (Bourtchuladze, R. et al., Cell, 79:59-68 (1994); and Bourtchouladze et al., Learn Mem., 5(4-5):365-374 (1998)). On the training day, the mouse was placed in the conditioning chamber (Med Associates) for 2 minutes before the onset of unconditioned stimulus (US) of 0.5 mA, two seconds shock. For weak training, US was repeated two times with a one minute inter-trial interval between shocks. For strong training, 5 USs were given. Training was automated and performed by computerized software package (Med Associates).
Thirty seconds after the end of the last trial, the mouse was returned to its home cage. The conditioning chamber was cleaned with 75% ethanol and then with water. Contextual memory was tested four days after training by scoring freezing responses. Freezing was assessed with a sampling method. That is, 2 second observations were taken every 5 seconds (Bourtchuladze, R. et al., Cell, 79:59-68 (1994); Bourtchouladze et al., Learn Mem., 5(4-5):365-374 (1998); and Frankland, P. W. et al., Behav. Neurosci., 112:863-874 (1998)). A mouse was detminined to be freezing when it adopted a motionless posture, refraining from all but respiratory movements.
For each training and drug-injecting procedure, an experimentally nave group of animals was used. The observations were made by an experimenter unaware of the experimental treatment of the mice. In each experiment, both training and testing were videotaped. Experiments were analyzed with an analysis of variance (ANOVA) and t-tests.
Anisomycin (ANI) (Sigma) was dissolved in 0.9% saline, and the pH was adjusted with 1 N HCl to 7.4. Control animals received injections of saline. Mice were injected in the hippocampus (62.5 μg/2 μl per hippocampus) immediately after training. Infusions were made through the guide cannula using a 33-gauge injection needle. The needle was connected via a polyethylene tube to a microsyringe fixed in the pump 11 (Harvard Instruments). The entire infusion procedure took 2 minutes and animals were freely moving during this time in the home cage. Experiments were replicated 2 times and for each training procedure, an experimentally nave group of animals was used (n=47 total).
Mouse antisense oligodeoxynucleotides (ODNs) directed against CREB mRNA (5′-T-s-g-s-g-s-T-C-A-T-T-g-T-T-A-C-C-g-s-g-s-T-s-g-3′) (SEQ ID NO:1) was used to disrupt hippocampal CREB protein levels. Control groups received infusions of ODN of the same base composition but in randomized order (scrambled CREB: 5′-g-s-T-s-C-s-T-g-T-A-g-T-C-g-A-T-C-T-A-T-s-g-s-g-s-T3′) (SEQ ID NO:2). ODNs were administered into the hippocampus (2 nmol/2 μl per hippocampus) as described above for ANI-infusion. CREB ODNs were infused 20 hours before training. Experiments were replicated 3 times and for each training procedure, an experimentally nave group of animals was used (n=54 total). […]

With `COc1ccc(C[C@H]2NC[C@H](O)[C@H]2OC(C)=O)cc1` [ANI, Anisomycin], the freezing responses turned out to be 28.42±4.9% (strong training (5 USs)) and 17.1±4.3% (weak training (2 USs)). In addition, the “effect on memory induced by weak training” value (ANI 62.5 mg/2 μl per hippocampus immediately after training, weak training, vs vehicle) was “significantly impaired memory”. Besides, under “ANI per hippocampus immediately after training, strong training, vs vehicle”, the “effect on memory induced by strong training” value is given as “significantly impaired memory”.

Turning to `COc1ccc(C2CNC(=O)C2)cc1OC1CCCC1` (centres unmarked) [Rolipram], the “effect on memory induced by weak training” value is, setting by setting: (Rolipram 0.03 ng into hippocampus, weak training (2 trials)) “had no memory enhancing effect”; (Rolipram 3 ng into hippocampus, weak training (2 trials)) “produced memory enhancing effect”; (Rolipram 30 ng/1 μl per hippocampus immediately after training, 2 trials, vs vehicle) “significantly enhanced the amount of memory”. Also, for the setting “Rolipram 30 ng/1 μl per hippocampus immediately after training, 5 trials, vs vehicle”, the “effect on maximal memory levels produced by strong training” value is “had no effect”.

The values above are taken from patent US8066972B2, “Altering memory by affecting staufen function” (Helicon Therapeutics, Inc., priority 2002, dated 2011).
